Measurements: paper PMC6479099, “Aminoguanidines: New leads for treatment of Giardia duodenalis infection” (International Journal for Parasitology: Drugs and Drug …, 2019)
Converted amounts (≈) assume the structure as drawn. “Also recorded” adds a separate entry of the source. Like-named read-outs stand apart in the source and are kept apart here.

Assays:
[1] = system: Giardia duodenalis BAH2c2 strain, assemblage A; assay: Resazurin reduction assay, assemblage A isolate; assay type: cell-based; conditions: BAH2c2, 24 h; for IC50: resazurin metabolic assay, read-out: IC50, Assemblage A
Experimental: (§1) G. duodenalis (BAH2c2 and BAH12 strain) was cultivated according to the method of Clark and Diamond in Keister's modified TYI-S-33 medium, supplemented with heat inactivated foetal bovine serum (Hyclone™, Thermo Fisher Scientific, Scoresby, Victoria, Australia) at 37 °C in plastic 9 mL screw-capped test tubes (nunc, Thermo Fisher Scientific, Scoresby, Victoria, Australia). Subcultures were performed once a confluent monolayer was observed, approximately 2–3 times per week ([Clark and Diamond, 2002]).
(§2) The in-vitro compound efficacy was determined using a resazurin reduction assay as previously described ([Benere et al., 2007]). The media of confluent cultures was replaced with fresh media and the cultures were placed on ice for 40 min to detach trophozoites. Trophozoites were enumerated using a haemocytometer and 50 000 trophozoites were added to each test well of a 96 well plate. Doubling or tripling dilutions of the test compounds were added to wells beginning at 25 or 50 μM compound concentration (previously prepared in DMSO). Metronidazole and DMSO (vehicle only) were used as controls. Plates were incubated under anaerobic conditions, using anaerobic gas generating sachets, (AnaeroGen, Thermo Fisher Scientific, Scoresby, Victoria, Australia) for 24 h at 37 °C. After incubation the media was removed and replaced with an equal volume of warm PBS. Resazurin (Alamarblue, Thermo Fisher Scientific, Scoresby, Victoria, Australia) was then added at 10% of the total volume of the wells. Plates were further incubated (1.5 h) for colour development and absorbance read at 570 nm and 630 nm. The percentage resazurin reduction was then calculated using the following formula:((εoxi630 x A570) – (εoxi570 x A630))/((εred570 x C630)-([…])) x 100Where: εoxi630 = 34798, εoxi570 = 80586, A570 = absorbance at 570 nm, A630 = absorbance at 630 nm, εred570 = 155677, εred630 = 5494, C630 = absorbance of negative control well at 630 nm and C570 = absorbance of negative control well at 570 nm.
(§3) For the resazurin reduction assay the mean and standard error of the mean were determined with each assay completed in triplicate. The IC50 was calculated using the log (inhibitor) vs. normalised response – variable slope function in Graphpad Prism. For the adherence assay mean and standard error of the mean were calculated and data analysed using an unpaired t-test, relative to untreated control.
(§4) The IC50 of each compound was determined using a resazurin reduction assay, which measures the metabolic activity of cells, using the log (inhibitor) vs. normalised response – variable slope function in Graphpad Prism. The compounds were tested against an assemblage A (BAH2c2, 24 h) and an assemblage B (BAH12, 24 h) isolate (Table 1). […] The effect of the compounds on the proliferation of Giardia trophozoites (BAH2c2) was also determined.
Absorbance was measured (630 and 570 nm), percent reduction of resazurin calculated and data presented as a percentage of the growth control. Treatment groups are: square - metronidazole; triangle –NCL 099; diamond - robenidine; and circle - NCL 062. Error ± SEM, n = 3. Data represents a typical experiment. Note the break in the x-axis indicates a change in the scale of drug concentration.

[2] = system: Giardia duodenalis BAH12, assemblage B; assay: Resazurin reduction assay, assemblage B isolate; assay type: cell-based; conditions: BAH12, 24 h
Experimental: as §1, §2, §3, §4

Giardia trophozoites = assay: Morphology of stained trophozoites at 100x magnification; assay type: cell-based, Giardia duodenalis; conditions: at IC50, 100 x magnification
Experimental: A second screening method, based on counting adherent trophozoites, was developed and used to validate the primary screen method, modified from earlier adherence assay protocols ([Crouch et al., 1986]). The assay was prepared in 24 well plates with plastic coverslips placed in the bottom. Trophozoites were prepared as above by placing on ice and ∼5 × 10^5 cells/mL were added to each well. Drugs prepared in DMSO were added at the required concentration, with the DMSO concentration never exceeding 1%. Assay plates were incubated for 5 h at 37 °C under anaerobic conditions, the media removed and cells adhering to the coverslips were fixed with glutaraldehyde or methanol. Once the coverslips were dry, cells were stained with a Romanowsky stain variant (Rapid stain), fixed to a glass slide and imaged at 10x or 100x magnification. Images (10x magnification) were processed with DotCount v1.2 software (http://reuter.mit.edu/, 2008–2012 ^© Martin Reuter) to count the number of cells present and data analysed using GraphPad Prism version 6.00 for Windows, GraphPad Software, La Jolla California USA, www.graphpad.com. Images (100x magnification) were assessed for obvious morphological changes.
Fig. 4 Morphological effect of Robenidine and NCL 099 on Giardia trophozoites. Giardia trophozoites were exposed to each compound for 24 h before fixation with glutaraldehyde and staining following the Diff quik protocol. A-control cells, B – cells treated with metronidazole (IC50, 2 μM), C- robendine treated cells (IC50, 2 μM), D – NCL 099 treated cells (IC50, 3 μM), E − NCL 099 treated cells (2 x IC50).

N=C(N/N=C/c1ccc(Cl)cc1)N/N=C/c1ccc(Cl)cc1 [Robenidine, robenidine]
IC50 [1]: 2900 ± 2900 nM | MLC (minimum lethal concentration), Assemblage A ([1]; concentration at which no metabolism of resazurin was observed): 2.8 to 8.3 µM | IC50 ([1]; Giardia duodenalis, 24 h): 2000 nM | MLC, Assemblage B [2]: 16.6 µM (≈ 5.55 µg/mL) | IC50 ([2]; Giardia duodenalis, resazurin metabolic assay): 4700 ± 600 nM | Morphological effect on stained trophozoites at the IC50 (Giardia trophozoites): decrease in the intensity of the membrane stain; also recorded: enlarged nuclei
